Reference: patent US20180251431A1 (VERTEX PHARMACEUTICALS INCORPORATED, priority 2016, published 2018)
pIC50: −log10 of the molar value.

The molecules below were run on HEK293 cells (assay: HEK293 VLCFA-LPC IC50 determination (13C-labeled C26:0 LPC by UHPLC/MS)). Conditions: Homo sapiens, HEK293, 48 h, average of one or more replicates; 13C-labeled C26:0 LPC, 48 hours; read-out: Average HEK293 IC50.
Assay type: cell-based, human
Summary of the method: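 Suspension HEK293 cells (final 0.5 million/mL after mixing with equal volume) incubated 48 hours with compound plus 13C-acetate (1.0 mg/mL in added media), shaking at 37° C. Lipids extracted with hexane/isopropanol or methanol, C13:0 LPC standard. UHPLC/MS of 13C-labeled C26:0 LPC (638.500/104.100 m/z); IC50 by four-parameter fit.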

SMILES | pIC50
O=C(Nc1ccn(-c2ccc(C(F)(F)F)nc2)n1)C1(c2ccccc2F)CC1 [Compound 315, 1-(2-fluorophenyl)-N-(1-(6-(trifluoromethyl)pyridin-3-yl)-1H-pyrazol-3-yl)cyclopropane-1-carboxamide] | < 5.30
O=C(Nc1ccn(-c2cncc(C(F)(F)F)c2)n1)C1(c2ccccc2F)CC1 [Compound 316, 1-(2-fluorophenyl)-N-[1-[5-(trifluoromethyl)-3-pyridyl]pyrazol-3-yl]cyclopropanecarboxamide] | < 5.30
COc1ncccc1-n1ccc(NC(=O)C2(c3ccccc3F)CC2)n1 [Compound 317, 1-(2-fluorophenyl)-N-[1-(2-methoxy-3-pyridyl)pyrazol-3-yl]cyclopropanecarboxamide] | < 5.30
N#Cc1cncc(-n2ccc(NC(=O)C3(c4ccccc4F)CC3)n2)c1 [Compound 318, N-[1-(5-cyano-3-pyridyl)pyrazol-3-yl]-1-(2-fluorophenyl)cyclopropanecarboxamide] | < 5.30
COc1ccc(-n2ccc(NC(=O)C3(c4ccccc4F)CC3)n2)cn1 [Compound 319, 1-(2-fluorophenyl)-N-(1-(6-methoxypyridin-3-yl)-1H-pyrazol-3-yl)cyclopropane-1-carboxamide] | 7.24
N#Cc1ncccc1-n1ccc(NC(=O)C2(c3ccccc3F)CC2)n1 [Compound 320, N-[1-(2-cyano-3-pyridyl)pyrazol-3-yl]-1-(2-fluorophenyl)cyclopropanecarboxamide] | < 5.30
COc1cc(-n2ccc(NC(=O)C3(c4ccccc4F)CC3)n2)cc(OC)c1OC [Compound 321, 1-(2-fluorophenyl)-N-[1-(3,4,5-trimethoxyphenyl)pyrazol-3-yl]cyclopropanecarboxamide] | < 5.30
COc1ccc(-n2ccc(NC(=O)C3(c4ccccc4F)CC3)n2)cc1F [Compound 322, N-[1-(3-fluoro-4-methoxy-phenyl)pyrazol-3-yl]-1-(2-fluorophenyl)cyclopropanecarboxamide] | 5.40
Cc1cncc(-n2ccc(NC(=O)C3(c4ccccc4F)CC3)n2)c1 [Compound 323, 1-(2-fluorophenyl)-N-[1-(5-methyl-3-pyridyl)pyrazol-3-yl]cyclopropanecarboxamide] | 6.46
O=C(Nc1ccn(-c2ccnc(C(F)(F)F)c2)n1)C1(c2ccccc2F)CC1 [Compound 324, 1-(2-fluorophenyl)-N-(1-(2-(trifluoromethyl)pyridin-4-yl)-1H-pyrazol-3-yl)cyclopropane-1-carboxamide] | < 5.30
O=C(Nc1ccn(-c2cncc(Cl)c2)n1)C1(c2ccccc2F)CC1 [Compound 325, N-[1-(5-chloro-3-pyridyl)pyrazol-3-yl]-1-(2-fluorophenyl)cyclopropanecarboxamide] | 7.14
N#Cc1ccc(-n2ccc(NC(=O)C3(c4ccccc4F)CC3)n2)cn1 [Compound 326, N-[1-(6-cyano-3-pyridyl)pyrazol-3-yl]-1-(2-fluorophenyl)cyclopropanecarboxamide] | < 5.30
COc1cncc(C#N)c1-n1ccc(NC(=O)C2(c3ccccc3F)CC2)n1 [Compound 327, N-[1-(3-cyano-5-methoxy-4-pyridyl)pyrazol-3-yl]-1-(2-fluorophenyl)cyclopropanecarboxamide] | < 5.30
O=C(Nc1ccn(-c2ccncc2C(F)(F)F)n1)C1(c2ccccc2F)CC1 [Compound 328, 1-(2-fluorophenyl)-N-[1-[3-(trifluoromethyl)-4-pyridyl]pyrazol-3-yl]cyclopropanecarboxamide] | < 5.30
N#Cc1cc(-n2ccc(NC(=O)C3(c4ccccc4F)CC3)n2)ccn1 [Compound 329, N-[1-(2-cyano-4-pyridyl)pyrazol-3-yl]-1-(2-fluorophenyl)cyclopropanecarboxamide] | 5.44
COc1nccc(-n2ccc(NC(=O)C3(c4ccccc4F)CC3)n2)n1 [Compound 330, 1-(2-fluorophenyl)-N-[1-(2-methoxypyrimidin-4-yl)pyrazol-3-yl]cyclopropanecarboxamide] | 6.59
Cc1nccc(-n2ccc(NC(=O)C3(c4ccccc4F)CC3)n2)n1 [Compound 331, 1-(2-fluorophenyl)-N-[1-(2-methylpyrimidin-4-yl)pyrazol-3-yl]cyclopropanecarboxamide] | < 5.30
O=C(Nc1ccn(-c2ccncc2Cl)n1)C1(c2ccccc2F)CC1 [Compound 333, N-[1-(3-chloro-4-pyridyl)pyrazol-3-yl]-1-(2-fluorophenyl)cyclopropanecarboxamide] | 6.02
CC(C)(O)c1cc(-n2ccc(NC(=O)C3(c4ccccc4F)CC3)n2)ccn1 [Compound 334, 1-(2-fluorophenyl)-N-[1-[2-(1-hydroxy-1-methyl-ethyl)-4-pyridyl]pyrazol-3-yl]cyclopropanecarboxamide] | < 5.30
N#Cc1cnccc1-n1ccc(NC(=O)C2(c3ccccc3F)CC2)n1 [Compound 335, N-[1-(3-cyano-4-pyridyl)pyrazol-3-yl]-1-(2-fluorophenyl)cyclopropanecarboxamide] | < 5.30

SMILES | pIC50
COc1nccc(-n2ccc(NC(=O)C3(c4ccccc4F)CC3)n2)c1C#N [Compound 336, N-[1-(3-cyano-2-methoxy-4-pyridyl)pyrazol-3-yl]-1-(2-fluorophenyl)cyclopropanecarboxamide] | < 5.30
Cc1cc(-n2ccc(NC(=O)C3(c4ccccc4F)CC3)n2)nc(C)n1 [Compound 337, N-[1-(2,6-dimethylpyrimidin-4-yl)pyrazol-3-yl]-1-(2-fluorophenyl)cyclopropanecarboxamide] | < 5.30
COc1ncc(-n2ccc(NC(=O)C3(c4ccccc4F)CC3)n2)cn1 [Compound 338, 1-(2-fluorophenyl)-N-[1-(2-methoxylpyrimidin-5-yl)pyrazol-3-yl]cyclopropanecarboxamide] | < 5.30
Cc1ncnc(C)c1-n1ccc(NC(=O)C2(c3ccccc3F)CC2)n1 [Compound 339, N-[1-(4,6-dimethylpyrimidin-5-yl)pyrazol-3-yl]-1-(2-fluorophenyl)cyclopropanecarboxamide] | < 5.30
COc1nccc(-n2ccc(NC(=O)C3(c4ccccc4F)CC3)n2)c1C [Compound 340, 1-(2-fluorophenyl)-N-[1-(2-methoxy-3-methyl-4-pyridyl)pyrazol-3-yl]cyclopropanecarboxamide] | < 5.30
Cc1ncncc1-n1ccc(NC(=O)C2(c3ccccc3F)CC2)n1 [Compound 341, 1-(2-fluorophenyl)-N-[1-(4-methylpyrimidin-5-yl)pyrazol-3-yl]cyclopropanecarboxamide] | 6.15
CC(C)Oc1cc(-n2ccc(NC(=O)C3(c4ccccc4F)CC3)n2)ccn1 [Compound 342, 1-(2-fluorophenyl)-N-[1-(2-isopropoxy-4-pyridyl)pyrazol-3-yl]cyclopropanecarboxamide] | < 5.30
Cc1nccc(-n2ccc(NC(=O)C3(c4ccccc4F)CC3)n2)c1C [Compound 343, N-[1-(2,3-dimethyl-4-pyridyl)pyrazol-3-yl]-1-(2-fluorophenyl)cyclopropanecarboxamide] | < 5.30
Cc1ncc(C#N)c(-n2ccc(NC(=O)C3(c4ccccc4F)CC3)n2)n1 [Compound 344, N-[1-(5-cyano-2-methyl-pyrimidin-4-yl)pyrazol-3-yl]-1-(2-fluorophenyl)cyclopropanecarboxamide] | < 5.30
COc1cncc(F)c1-n1ccc(NC(=O)C2(c3ccccc3F)CC2)n1 [Compound 345, N-[1-(3-fluoro-5-methoxy-4-pyridyl)pyrazol-3-yl]-1-(2-fluorophenyl)cyclopropanecarboxamide] | < 5.70
Cc1cc(-n2ccc(NC(=O)C3(c4ccccc4F)CC3)n2)cc(C#N)n1 [Compound 346, N-[1-(2-cyano-6-methyl-4-pyridyl)pyrazol-3-yl]-1-(2-fluorophenyl)cyclopropanecarboxamide] | < 5.30
COc1cncc(OC)c1-n1ccc(NC(=O)C2(c3ccccc3F)CC2)n1 [Compound 347, N-[1-(3,5-dimethoxy-4-pyridyl)pyrazol-3-yl]-1-(2-fluorophenyl)cyclopropanecarboxamide] | < 5.30
COc1ncc(-n2ccc(NC(=O)C3(c4ccccc4F)CC3)n2)cc1F [Compound 348, N-[1-(5-fluoro-6-methoxy-3-pyridyl)pyrazol-3-yl]-1-(2-fluorophenyl)cyclopropanecarboxamide] | 7.48
Cc1ncc(-n2ccc(NC(=O)C3(c4ccccc4F)CC3)n2)cc1F [Compound 349, N-[1-(5-fluoro-6-methyl-3-pyridyl)pyrazol-3-yl]-1-(2-fluorophenyl)cyclopropanecarboxamide] | 6.36
Cc1cc(-n2ccc(NC(=O)C3(c4ccccc4F)CC3)n2)c(C)cn1 [Compound 350, N-[1-(2,5-dimethyl-4-pyridyl)pyrazol-3-yl]-1-(2-fluorophenyl)cyclopropanecarboxamide] | < 5.30
Cc1c(-n2ccc(NC(=O)C3(c4ccccc4F)CC3)n2)ccnc1F [Compound 351, N-[1-(2-fluoro-3-methyl-4-pyridyl)pyrazol-3-yl]-1-(2-fluorophenyl)cyclopropanecarboxamide] | 6.38
N#Cc1cc(F)cc(-n2ccc(NC(=O)C3(c4ccccc4F)CC3)n2)c1 [Compound 352, N-[1-(3-cyano-5-fluoro-phenyl)pyrazol-3-yl]-1-(2-fluorophenyl)cyclopropanecarboxamide] | < 5.30
COc1ncncc1-n1ccc(NC(=O)C2(c3ccccc3F)CC2)n1 [Compound 353, 1-(2-fluorophenyl)-N-[1-(4-methoxypyrimidin-5-yl)pyrazol-3-yl]cyclopropanecarboxamide] | 5.66
CC(C)(O)c1ncc(-n2ccc(NC(=O)C3(c4ccccc4F)CC3)n2)cc1F [Compound 354, N-[1-[5-fluoro-6-(1-hydroxy-1-methyl-ethyl)-3-pyridyl]pyrazol-3-yl]-1-(2-fluorophenyl)cyclopropanecarboxamide] | < 5.30
